Assay results published in publication PMC6009886, “Methanethiosulfonate derivatives as ligands of the STAT3-SH2 domain” (Journal of Enzyme Inhibition and Medicinal Chemistry, 2017).
Where a name gives a salt, the structure may show the parent alone. Marks after values point to notes of the source that are not given here.

Assays:
STAT3-SH2 domain = molecular target: T1, STAT3-SH2 domain (Homo sapiens, UniProt P40763); assay: AlphaScreen-based assay, STAT3-SH2 domain / pTyr peptide binding; details: for inhibition at 30 µM: a = mean of two experiments; for IC50: read-out: STAT3 IC50 (μM) ± SD
T1 construct: First, 75 nM of each SH2-containing protein was incubated with the test compound for 15 min
T1 sequence (P40763 whole entry, the tested form may be a part): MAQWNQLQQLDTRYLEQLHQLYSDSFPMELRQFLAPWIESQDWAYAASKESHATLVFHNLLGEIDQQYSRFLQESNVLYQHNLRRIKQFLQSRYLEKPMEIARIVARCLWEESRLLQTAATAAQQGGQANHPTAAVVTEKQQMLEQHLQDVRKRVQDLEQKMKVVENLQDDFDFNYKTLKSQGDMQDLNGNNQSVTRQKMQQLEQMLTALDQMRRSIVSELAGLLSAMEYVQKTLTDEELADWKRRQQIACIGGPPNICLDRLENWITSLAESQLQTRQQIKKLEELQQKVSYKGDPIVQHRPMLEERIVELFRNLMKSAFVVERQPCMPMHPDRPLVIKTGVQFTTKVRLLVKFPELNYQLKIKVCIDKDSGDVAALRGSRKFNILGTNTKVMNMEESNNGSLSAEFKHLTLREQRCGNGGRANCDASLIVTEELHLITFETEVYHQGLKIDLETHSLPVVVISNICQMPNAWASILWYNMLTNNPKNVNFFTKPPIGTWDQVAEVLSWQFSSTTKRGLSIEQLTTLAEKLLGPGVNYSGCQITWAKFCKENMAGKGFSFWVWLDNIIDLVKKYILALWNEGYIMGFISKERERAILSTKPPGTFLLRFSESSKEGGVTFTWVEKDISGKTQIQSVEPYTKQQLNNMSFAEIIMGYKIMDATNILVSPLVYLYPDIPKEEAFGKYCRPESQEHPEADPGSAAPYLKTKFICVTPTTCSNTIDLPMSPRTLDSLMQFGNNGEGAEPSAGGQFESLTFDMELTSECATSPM

STAT1 = molecular target: T2, STAT1 (Homo sapiens, UniProt P42224); assay: AlphaScreen-based assay, selectivity versus STAT1; assay type: binding; details: for IC50: read-out: STAT1 IC50 (μM) ± SD
T2 construct: First, 75 nM of each SH2-containing protein was incubated with the test compound for 15 min
T2 sequence (P42224 1-750): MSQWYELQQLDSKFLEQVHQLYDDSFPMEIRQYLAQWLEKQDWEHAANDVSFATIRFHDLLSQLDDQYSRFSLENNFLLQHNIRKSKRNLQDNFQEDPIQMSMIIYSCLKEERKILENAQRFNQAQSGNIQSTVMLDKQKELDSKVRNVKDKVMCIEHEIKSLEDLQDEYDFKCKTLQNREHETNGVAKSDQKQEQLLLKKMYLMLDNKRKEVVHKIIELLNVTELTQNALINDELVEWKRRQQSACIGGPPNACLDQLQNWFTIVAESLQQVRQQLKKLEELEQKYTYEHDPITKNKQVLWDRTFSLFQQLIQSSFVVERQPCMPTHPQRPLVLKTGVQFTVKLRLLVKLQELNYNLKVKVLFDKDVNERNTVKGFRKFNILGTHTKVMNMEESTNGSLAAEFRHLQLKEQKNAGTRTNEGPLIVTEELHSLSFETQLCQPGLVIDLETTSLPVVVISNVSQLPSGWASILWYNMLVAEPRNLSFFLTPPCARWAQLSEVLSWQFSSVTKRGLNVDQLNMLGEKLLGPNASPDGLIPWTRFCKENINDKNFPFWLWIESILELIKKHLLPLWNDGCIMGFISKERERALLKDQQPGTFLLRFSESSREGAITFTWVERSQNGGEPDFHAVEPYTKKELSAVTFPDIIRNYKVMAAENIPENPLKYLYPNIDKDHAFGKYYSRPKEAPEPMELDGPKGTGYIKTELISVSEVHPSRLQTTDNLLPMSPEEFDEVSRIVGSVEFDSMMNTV
Experimental: (§1) STAT3 inhibitory activity of the described compounds was tested by the AlphaScreen-based assay to evaluate the potential inhibition of the interaction between STAT3-SH2 domain and pTyr-containing peptides according to the previously reported procedure. For the most interesting compounds, selectivity tests versus STAT1 and Grb2 (Growth factor receptor-bound protein 2) were performed. AlphaScreen is a bead-based nonradioactive assay system for detecting biomolecular interactions in a microtiter plate format. Binding of biological partners brings donor and acceptor beads into close proximity and as result, a luminescent signal between 520 and 620 nm is produced. The AlphaScreen-based assays were typically performed in a final reaction volume of 25 μl of the assay buffer containing 10 mM HEPES–NaOH (pH 7.4), 50 mM NaCl, 1 mM EDTA (pH 8.0), 0.1% NP-40, and 10 ng/μl BSA in a 96-well microtiter plate at 25 °C. Phospho-Tyr (pTyr) peptide probes used in this study were 5-carboxyfluorescein (FITC)-GpYLPQTV for STAT3, FITC-GpYDKPHVL for STAT1, and FITC-PSpYVNVQN for Grb2. First, 75 nM of each SH2-containing protein was incubated with the test compound for 15 min. Each protein sample was then incubated for 90 min with 50 nM of its corresponding FITC-pTyr peptide, and mixed with streptavidin-coated donor beads and anti-FITC acceptor beads simultaneously before detection at 570 nm using EnVisonXcite (Perkin Elmer, Waltham, MA).

STAT3 homodimers = tested on: STAT3 homodimers; design: method as in PMID 17463090; details: read-out: IC50, blocked the formation of STAT3 homodimers; cited from earlier work
HCT-116 cell line = assay: MTT assay, cytotoxicity on HCT-116 cell line; assay type: cell-based, human; details: for IC50: Homo sapiens, HCT-116, 48 h treatment, NA: not active up to 200 μM, read-out: HCT-116 IC50 (μM) ± SD; for antiproliferative / cytotoxic activity on HCT-116 cell line (in words): 48 h treatment
Experimental: The colorectal cancer HCT116 cells were cultured in McCoy’s media supplemented with penicillin (10,000 U/ml), streptomycin (10 mg/ml), nonessential amino acid, and 10% fetal calf serum (FCS). Cells were then seeded in 48 well plates and, after 24 h, they were incubated with different concentration of newly synthesized compounds dissolved in DMSO.
After 48 h of treatment, medium was removed from each well, and cells were incubated with fresh medium, containing 10% (v/v) of MTT (3-(4,5-dimethyl-2-thiazolyl)-2,5-diphenyl-2H-tetrazolium bromide) reagent. MTT, by interacting with vital cells mitochondria, is converted to formazan, with the development of visible purple crystals. After dissolving these crystals with isopropanol-HCl, the quantification of the conversion of MTT to formazan is determined through spectrophotometer analysis (595 nM), as previously described.

[1] = tested on: T3, Grb2 (Growth factor receptor-bound protein 2); assay: AlphaScreen-based assay, selectivity versus Grb2; assay type: binding; details: a = mean of two experiments
T3 construct: First, 75 nM of each SH2-containing protein was incubated with the test compound for 15 min
Experimental: as §1

| Compound | inhibition at 30 µM (STAT3-SH2 domain) [%] | IC50 (STAT3-SH2 domain) [µM] | inhibition at 30 µM (STAT1) [%] | IC50 (STAT1) [µM] | inhibition / binding of STAT3-SH2 domain (in words) (STAT3-SH2 domain; highest concentration tested 30 μM) | inhibition at 3 µM (STAT3-SH2 domain) [%] | inhibition at 3 µM (STAT1) [%] | Grb2 % Inhibition 3 μM [1] | IC50 (STAT3 homodimers) [µM] | IC50 (HCT-116 cell line) [µM] | antiproliferative / cytotoxic activity on HCT-116 cell line (in words) (HCT-116 cell line) |
| --- | --- | --- | --- | --- | --- | --- | --- | --- | --- | --- | --- |
| CC1=C(CC(=O)O)c2cc(F)ccc2/C1=C\c1ccc([S+](C)[O-])cc1 (centres unmarked) [Sulindac, sulindac, reference compound] | 4.2 ± 3.2 | > 30 | 4.9 ± 2 | > 30 | – | – | – | – | – | – | – |
| CC(=O)Oc1ccccc1C(=O)O [ASA, acetyl salicylic acid, reference compound] | 3.8 ± 1.9 | > 30 | 6.3 ± 1.7 | > 30 | – | – | – | – | – | – | – |
| Cc1ccc(S(=O)(=O)OCC(=O)Nc2ccc(C(=O)O)c(O)c2)cc1 [Compound S3I-301, reference compound] | 7.2 ± 1.7 | – | – | – | – | – | – | – | 86 | 39.5 ± 7.7 | – |
| CC(=O)Oc1ccccc1C(=O)OCCSS(C)(=O)=O [Compound 4, 2-Acetoxybenzoic acid 2-methanesulfonylsulfanyl-ethyl ester] | 100 ± 0.1 | 1.4 ± 0.1 | 99.8 ± 0.4 | 3.6 | – | 93.5 ± 2.6 | 44.2 ± 0.8 | 15.9^a % | – | 87.9 ± 11.4 | moderate antiproliferative activity |
| O=C(O)Cc1ccccc1Nc1c(Cl)cccc1Cl [Diclofenac sodium salt, reference compound] | 4.5 ± 2.4 | > 30 | 6.5 ± 2.1 | > 30 | – | – | – | – | – | – | – |
| CCCC(CCC)C(=O)O [VA, valproic acid, reference compound] | 0.2 ± 3.2 | > 30 | 2.7 ± 3 | > 30 | – | – | – | – | – | – | – |
| Cc1ccc(S(=O)(=O)SCC(=O)Nc2ccc(C(=O)O)c(O)c2)cc1 [Compound 6, 2-Hydroxy-4-(2-(tosylthio)acetamido)benzoic acid] | 58.4 ± 1.1 | 4.9 ± 0.4 | 39.6 ± 0.8 | > 30 | – | 46 ± 0.8 | 18 ± 0.2 | – | – | > 200 | – |

Second part, led by results:

| inhibition at 30 µM (STAT3-SH2 domain) [%] | IC50 (STAT3-SH2 domain) [µM] | inhibition at 30 µM (STAT1) [%] | IC50 (STAT1) [µM] | inhibition / binding of STAT3-SH2 domain (in words) (STAT3-SH2 domain; highest concentration tested 30 μM) | inhibition at 3 µM (STAT3-SH2 domain) [%] | inhibition at 3 µM (STAT1) [%] | Grb2 % Inhibition 3 μM [1] | Compound | IC50 (STAT3 homodimers) [µM] | IC50 (HCT-116 cell line) [µM] | antiproliferative / cytotoxic activity on HCT-116 cell line (in words) (HCT-116 cell line) |
| --- | --- | --- | --- | --- | --- | --- | --- | --- | --- | --- | --- |
| 41.8 ± 0.9 | > 30 | – | – | moderately inhibited | – | – | – | CS(=O)(=O)CSC(=O)c1ccc(N)cc1O [Compound 8, S-((methylsulfonyl)methyl) 4-amino-2-hydroxybenzothioate] | – | 26.3 ± 11.6 | good cytotoxic activity |
| 102 | 0.5 ± 0.1 | – | > 3 | – | 105 ± 8.2 | 46.7 ± 1.1 | 74.6^a % | CC1=C(CC(=O)OCCSS(C)(=O)=O)c2cc(F)ccc2/C1=C\c1ccc([S+](C)[O-])cc1 (centres unmarked) [Compound 3, (Z)-5-fluoro-2-methyl-1-[[4-(methylsulfinyl)phenyl]methylene]-1H-indene-3-acetic acid 2-methanesulfonylsulfanylethyl ester] | – | 104 ± 10.9 | moderate antiproliferative activity |
| 106 | 1.4 ± 0.1 | – | > 3 | – | 67.2 ± 11 | 1.9 ± 2.2 | −23.3^a % | CCCC(CCC)C(=O)NCCSS(C)(=O)=O [Compound 2, S-(2-(2-propylpentanamido)ethyl) methanesulfonothioate] | – | – | inefficacious at concentration up to 100–200 μM |
| – | > 3 | – | > 3 | – | – | – | 12.3^a % | CS(=O)(=O)SCCN [Compound 10, S-(2-aminoethyl) methanesulfonothioate, reference compound] | – | – | – |
| – | > 30 | – | – | – | – | – | – | CS(=O)(=O)SCCO [Compound 9, S-(2-hydroxyethyl) methanesulfonothioate, reference compound] | – | – | – |
| 102 | 0.5 ± 0.2 | – | > 3 | – | 110 ± 2.2 | 35.4 ± 2.1 | 77.8^a % | CS(=O)(=O)SCCOC(=O)Cc1ccccc1Nc1c(Cl)cccc1Cl [Compound 5, 2-((methylsulfonyl)thio)ethyl 2-(2-((2,6-dichlorophenyl)amino)phenyl)acetate] | – | – | inefficacious at concentration up to 100–200 μM |
| 102 | 0.7 ± 0.1 | – | > 3 | – | 101 ± 2.2 | 44.9 ± 10.5 | 76.0^a % | CCCC(CCC)C(=O)OCCSS(C)(=O)=O [Compound 1, 2-((Methylsulfonyl)thio)ethyl 2-propylpentanoate] | – | 136 ± 2.2 | moderate antiproliferative activity |
